In paper PMC5131395, “Asperterpenes A and B, two unprecedented meroterpenoids from Aspergillus terreus with BACE1 inhibitory activities” (Chemical Science, 2016) one finds IC50 data, which are given here for two molecules.

The assay has as its target BACE1 (Homo sapiens, UniProt P56817). Briefly: cell-based FRET peptide cleavage assay, HEK-293 cells.

The structures appear in SMILES notation.

BACE1, sequence (P56817 46-501): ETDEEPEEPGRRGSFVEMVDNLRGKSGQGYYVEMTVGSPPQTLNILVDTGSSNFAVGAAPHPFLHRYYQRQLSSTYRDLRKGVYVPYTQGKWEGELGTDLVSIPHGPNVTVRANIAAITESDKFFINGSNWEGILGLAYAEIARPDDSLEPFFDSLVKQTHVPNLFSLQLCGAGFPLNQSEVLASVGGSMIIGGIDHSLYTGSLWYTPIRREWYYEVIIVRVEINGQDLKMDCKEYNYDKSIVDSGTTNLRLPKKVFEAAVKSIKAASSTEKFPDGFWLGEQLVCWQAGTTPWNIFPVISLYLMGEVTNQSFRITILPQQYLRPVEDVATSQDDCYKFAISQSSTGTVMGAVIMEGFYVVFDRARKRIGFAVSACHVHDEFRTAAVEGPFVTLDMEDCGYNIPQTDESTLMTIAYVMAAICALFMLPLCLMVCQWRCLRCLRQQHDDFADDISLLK

As to `COC(=O)C1=C(C)[C@@]2(C)C[C@H]3[C@@]4(C)CCC(=O)C(C)(C)[C@@H]4CC[C@]3(C)[C@@](C)(C1=O)C2=O` [compound 1, asperterpene A], inhibition was half-maximal at 78 nM (IC50).
Then `COC(=O)CC[C@@]1(C)[C@H](C(C)(C)O)CC[C@@]2(C)[C@H]1C[C@@]1(C)C(=O)[C@]2(C)C(=O)C(C(=O)OC)=C1C` [compound 2, asperterpene B], with 59 nM.

For orientation: IC50 means the concentration that inhibits the measured activity by half. Low values mean inhibition by little substance, high ones a need for much substance.
